Assay results reported in patent US20050148631A1, “Amino heterocyclyl inhibitors of 11-beta-hydroxy steroid dehydrogenase type 1” (AGOURON PHARMACEUTICALS, INC., priority 2003, published 2005).
Like-named read-outs stand apart in the source and are kept apart here.

Tests used:
[1] = molecular target: T1, 11β-hsd-1 enzyme (Homo sapiens, UniProt P28845); assay: 11β-hsd-1 enzyme assay, Kiapp determination (3H-cortisone to cortisol, radio-HPLC); assay type: biochemical; conditions: read-out: Ki app
T1 sequence (P28845 whole entry, species assumed): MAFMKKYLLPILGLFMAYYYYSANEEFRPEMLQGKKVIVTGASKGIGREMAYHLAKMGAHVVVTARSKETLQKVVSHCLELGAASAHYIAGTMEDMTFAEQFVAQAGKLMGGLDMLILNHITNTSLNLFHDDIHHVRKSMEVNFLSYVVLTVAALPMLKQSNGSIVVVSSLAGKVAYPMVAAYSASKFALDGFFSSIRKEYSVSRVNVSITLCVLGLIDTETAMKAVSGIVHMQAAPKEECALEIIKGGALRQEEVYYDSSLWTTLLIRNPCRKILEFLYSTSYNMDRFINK

[2] = molecular target: T1, 11β-hsd-1 enzyme; assay: 11β-hsd-1 enzyme assay, percentage of inhibition (3H-cortisone to cortisol, radio-HPLC); assay type: biochemical; conditions: read-out: % inh @ 0.1 uM

Row | Ki ([1]; apparent Ki, 11β-hsd-1 enzyme) [µM] | inhibition at 0.1 µM ([2]; compound at 0.1 uM) [%] | Ki [1] [µM] | inhibition at 0.1 µM ([2]; 0.1 uM) [%] | SMILES
1 | 0.0224 | 85.4 | – | – | CCOc1ccc(-c2ccc(S(=O)(=O)Nc3cccc(C)n3)cc2)c(C)c1 [Example 254]
2 | 0.052 | 71.8 | – | – | Cc1cccc(NS(=O)(=O)N2CCC(Oc3ccccc3)CC2)n1 [Example 314]
3 | 0.047 | 75 | – | – | Cc1cccc(NS(=O)(=O)c2ccc(-c3ccccc3Cl)c(C)c2)n1 [Example 212]
4 | < 0.001 | 100 | – | – | N#Cc1ccc(C2CCN(S(=O)(=O)Nc3cccc(N)n3)CC2)cc1 [Example 317, 4-(4-Cyano-phenyl)-piperidine-1-sulfonic acid (6-amino-pyridin-2-yl)-amide]
5 | 0.0058 | 96 | – | – | Cc1cccc(NS(=O)(=O)c2ccc(-c3ccc(Cl)cc3)cc2)n1 [Example 249, 4′-Chloro-biphenyl-4-sulfonic acid (6-methyl-pyridin-2-yl)-amide]
6 | 0.0073 | 94.6 | – | – | O=S(=O)(Nc1cccc(C2CC2)n1)c1ccc(-c2ccc(C(F)(F)F)cc2)nc1 [Example 294]
7 | < 0.001 | 100 | – | – | Cc1cc(-c2ccc(S(=O)(=O)Nc3cccc(N)n3)cc2)ccc1C#N [Example 282, 4′-Cyano-3′-methyl-biphenyl-4-sulfonic acid (6-amino-pyridin-2-yl)-amide]
8 | 0.0076 | 90 | – | – | Cc1cccc(NS(=O)(=O)N2CCC(c3cccc(F)c3)CC2)n1 [Example 309]
9 | 0.012 | 100 | – | – | Cc1cccc(NS(=O)(=O)c2ccc(-c3ccc(C#N)cc3C(F)(F)F)cc2)n1 [Example 272]
10 | 0.019 | 93 | – | – | Cc1cccc(NS(=O)(=O)c2ccc(-c3cccc(F)c3)c(C)c2)n1 [Example 224]

The next lines start with the compound.

Row | SMILES | Ki ([1]; apparent Ki, 11β-hsd-1 enzyme) [µM] | inhibition at 0.1 µM ([2]; compound at 0.1 uM) [%] | Ki [1] [µM] | inhibition at 0.1 µM ([2]; 0.1 uM) [%]
11 | O=S(=O)(Nc1ccc2ccccc2n1)c1ccc(-c2ccc(F)cc2)cc1 [Example 48] | – | – | 0.0145 | 90
12 | Cc1cc(C)nc(NS(=O)(=O)c2ccc(-c3ccc(C#N)cc3)cc2)c1 [Example 96] | – | – | 0.007 | 100
13 | CCc1cccc(NS(=O)(=O)c2sc(-c3ccccc3)nc2C)n1 [Example 104] | – | – | 0.023 | 89.6
14 | CCOc1ccc(-c2ccc(S(=O)(=O)Nc3cccc(C)n3)c(C)c2)cc1 [Example 192] | – | – | 0.015 | 81
15 | Nc1cccc(NS(=O)(=O)c2ccc(-c3ccc(Cl)cc3)cc2)n1 [Example 42] | – | – | 0.0046 | 96
16 | CCS(=O)(=O)c1ccc(-c2ccc(S(=O)(=O)Nc3cccc(C)n3)c(C)c2)cc1 [Example 203] | 0.019 | 86 | – | –
17 | Cc1c(Cl)cccc1S(=O)(=O)Nc1cccc(N)n1 [Example 41] | – | – | 0.017 | 94
18 | CCOC(=O)Cc1cccc(NS(=O)(=O)c2ccc(-c3ccc(C#N)cc3)cc2)n1 [Example 2] | – | – | 0.016 | 85.4
19 | CCN(CC)C(=O)Cc1cccc(NS(=O)(=O)c2sc3ccc(Cl)cc3c2C)n1 [Example 19, 2-[6-(5-Chloro-3-methyl-benzo[b]thiophene-2-sulfonylamino)-pyridin-2-yl]-N,N-diethyl-acetamide] | – | – | 0.0048 | 96.9
20 | CCc1ccccc1-c1ccc(S(=O)(=O)Nc2cccc(C)n2)c(C)c1 [Example 201] | 0.043 | 75 | – | –
21 | N#Cc1ccc(-c2ccc(S(=O)(=O)Nc3cccc(CCO)n3)cc2)cc1 [Example 117] | – | – | 0.0262 | 84.8
22 | COc1ccc(-c2ccc(S(=O)(=O)Nc3cccc(C)n3)cc2)cc1 [Example 161] | – | – | 0.0225 | 90.3
23 | Cc1cccc(NS(=O)(=O)c2ccc(-c3ccc(Cl)c(Cl)c3)cc2C)n1 [Example 176] | – | – | 0.0052 | 100
24 | Cc1cccc(NS(=O)(=O)c2ccc(-c3cc(F)cc(F)c3)cc2C)n1 [Example 178] | – | – | 0.0082 | 95
25 | Cc1cccc(NS(=O)(=O)c2ccc(-c3ccc(F)c(C)c3)cc2C)n1 [Example 183] | – | – | 0.014 | 91
